Measured values published in the supplement of paper PMC10307832.

Assays:
Experiment in all cases: relative viability (nuclei count vs DMSO), 5 days (fraction); higher = more cells survive
[1] = system: BEN
How it was run: (§1)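 After 5 days of treatment, lung cancer cells in 1536-well plates were fixed and stained in a single step (final 0.05% Triton X-100, 1% formaldehyde, 1 ug/ml Hoechst) and their nuclei counted on 4× images. Treatment had been applied by pin tool the day after seeding as one drug alone or as a fixed anchor-drug dose with five library-drug doses (not always all listed) in √10 steps. Relative viability is the nuclei count of treated wells divided by that of vehicle wells, and values are medians of duplicate plates.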

[2] = system: NCI-H2087
How it was run: as §1

[3] = system: SW 1573
How it was run: as §1

[4] = system: NCI-H1650
How it was run: as §1

[5] = system: HCC-827
How it was run: as §1

[6] = system: A-427
How it was run: as §1

[7] = system: COR-L23
How it was run: as §1

[8] = system: NCI-H2126
How it was run: as §1

[9] = system: LCLC-103H
How it was run: as §1

[10] = system: 201T
How it was run: as §1

[11] = system: NCI-H1793
How it was run: as §1

[12] = system: NCI-H1651
How it was run: as §1

[13] = system: EMC-BAC-2
How it was run: as §1

[14] = system: NCI-H596
How it was run: as §1

[15] = system: NCI-H441
How it was run: as §1

[16] = system: EPLC-272H
How it was run: as §1

[17] = system: NCI-H460
How it was run: as §1

[18] = system: HCC-44
How it was run: as §1

[19] = system: LK-2
How it was run: as §1

[20] = system: NCI-H1915
How it was run: as §1

[21] = system: NCI-H2347
How it was run: as §1

[22] = system: EKVX
How it was run: as §1

[23] = system: NCI-H358
How it was run: as §1

[24] = system: SW 900
How it was run: as §1

[25] = system: LXF-289
How it was run: as §1

Compound: CCCCCCCCCCCC1=C(O)C(=O)C=C(O)C1=O [Embelin] + COc1cccc2cc(-c3nc([C@H]4CC[C@H](C(=O)O)CC4)n4ncnc(N)c34)[nH]c12 [OSI-027] (partner 0.5 µM)
- relative viability ([1]; first compound 0.08 µM): 0.287
- relative viability ([1]; first compound 0.8 µM): 0.341
- relative viability ([1]; first compound 2.53 µM): 0.338
- relative viability ([1]; first compound 8 µM): 0.289
- relative viability ([2]; first compound 0.08 µM): 0.5
- relative viability ([2]; first compound 0.8 µM): 0.543
- relative viability ([2]; first compound 2.53 µM): 0.656
- relative viability ([2]; first compound 8 µM): 0.628
- relative viability ([3]; first compound 0.08 µM): 0.6
- relative viability ([3]; first compound 0.8 µM): 0.768
- relative viability ([3]; first compound 2.53 µM): 0.896
- relative viability ([3]; first compound 8 µM): 0.573
- relative viability ([4]; first compound 0.08 µM): 0.791
- relative viability ([4]; first compound 0.8 µM): 0.801
- relative viability ([4]; first compound 2.53 µM): 0.653
- relative viability ([4]; first compound 8 µM): 0.598
- relative viability ([5]; first compound 0.08 µM): 0.749
- relative viability ([5]; first compound 0.8 µM): 0.797
- relative viability ([5]; first compound 2.53 µM): 0.836
- relative viability ([5]; first compound 8 µM): 0.866
- relative viability ([6]; first compound 0.08 µM): 0.424
- relative viability ([6]; first compound 0.8 µM): 0.495
- relative viability ([6]; first compound 2.53 µM): 0.439
- relative viability ([6]; first compound 8 µM): 0.497
- relative viability ([7]; first compound 0.08 µM): 0.756
- relative viability ([7]; first compound 0.8 µM): 0.92
- relative viability ([7]; first compound 2.53 µM): 0.923
- relative viability ([7]; first compound 8 µM): 0.921
- relative viability ([8]; first compound 0.08 µM): 0.666
- relative viability ([8]; first compound 0.8 µM): 0.746
- relative viability ([8]; first compound 2.53 µM): 0.804
- relative viability ([8]; first compound 8 µM): 0.795
- relative viability ([9]; first compound 0.08 µM): 0.467
- relative viability ([9]; first compound 0.8 µM): 0.492
- relative viability ([9]; first compound 2.53 µM): 0.495
- relative viability ([9]; first compound 8 µM): 0.423
- relative viability ([10]; first compound 0.08 µM): 0.72
- relative viability ([10]; first compound 0.8 µM): 0.883
- relative viability ([10]; first compound 2.53 µM): 0.746
- relative viability ([10]; first compound 8 µM): 0.83
- relative viability ([11]; first compound 0.08 µM): 0.281
- relative viability ([11]; first compound 0.8 µM): 0.367
- relative viability ([11]; first compound 2.53 µM): 0.237
- relative viability ([11]; first compound 8 µM): 0.243
- relative viability ([12]; first compound 0.08 µM): 0.749
- relative viability ([12]; first compound 0.8 µM): 0.677
- relative viability ([12]; first compound 2.53 µM): 0.801
- relative viability ([12]; first compound 8 µM): 0.776
- relative viability ([13]; first compound 0.08 µM): 0.375
- relative viability ([13]; first compound 0.8 µM): 0.47
- relative viability ([13]; first compound 2.53 µM): 0.349
- relative viability ([13]; first compound 8 µM): 0.353
- relative viability ([14]; first compound 0.08 µM): 0.773
- relative viability ([14]; first compound 0.8 µM): 0.854
- relative viability ([14]; first compound 2.53 µM): 0.771
- relative viability ([14]; first compound 8 µM): 0.454
- relative viability ([15]; first compound 0.08 µM): 0.688
- relative viability ([15]; first compound 0.8 µM): 0.742
- relative viability ([15]; first compound 2.53 µM): 0.673
- relative viability ([15]; first compound 8 µM): 0.647
- relative viability ([16]; first compound 0.08 µM): 0.256
- relative viability ([16]; first compound 0.8 µM): 0.319
- relative viability ([16]; first compound 2.53 µM): 0.309
- relative viability ([16]; first compound 8 µM): 0.255
- relative viability ([17]; first compound 0.08 µM): 0.683
- relative viability ([17]; first compound 0.8 µM): 0.88
- relative viability ([17]; first compound 2.53 µM): 0.958
- relative viability ([17]; first compound 8 µM): 0.751
- relative viability ([18]; first compound 0.08 µM): 0.481
- relative viability ([18]; first compound 0.8 µM): 0.479
- relative viability ([18]; first compound 2.53 µM): 0.344
- relative viability ([18]; first compound 8 µM): 0.323
- relative viability ([19]; first compound 0.08 µM): 0.246
- relative viability ([19]; first compound 0.8 µM): 0.226
- relative viability ([19]; first compound 2.53 µM): 0.22
- relative viability ([19]; first compound 8 µM): 0.194
- relative viability ([20]; first compound 0.08 µM): 0.679
- relative viability ([20]; first compound 0.8 µM): 0.707
- relative viability ([20]; first compound 2.53 µM): 0.602
- relative viability ([20]; first compound 8 µM): 0.653
- relative viability ([21]; first compound 0.08 µM): 0.428
- relative viability ([21]; first compound 0.8 µM): 0.468
- relative viability ([21]; first compound 2.53 µM): 0.412
- relative viability ([21]; first compound 8 µM): 0.527
- relative viability ([22]; first compound 0.08 µM): 0.715
- relative viability ([22]; first compound 0.8 µM): 0.677
- relative viability ([22]; first compound 2.53 µM): 0.789
- relative viability ([22]; first compound 8 µM): 0.743
- relative viability ([23]; first compound 0.08 µM): 0.774
- relative viability ([23]; first compound 0.8 µM): 1.01
- relative viability ([23]; first compound 2.53 µM): 0.898
- relative viability ([23]; first compound 8 µM): 1.07
- relative viability ([24]; first compound 0.08 µM): 0.496
- relative viability ([24]; first compound 0.8 µM): 0.541
- relative viability ([24]; first compound 2.53 µM): 0.553
- relative viability ([24]; first compound 8 µM): 0.347
- relative viability ([25]; first compound 0.08 µM): 0.796
- relative viability ([25]; first compound 0.8 µM): 0.952
- relative viability ([25]; first compound 2.53 µM): 0.801
- relative viability ([25]; first compound 8 µM): 0.873
